Source: PubChem BioAssay (NCI)
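Results reflect a 48-hour exposure of cells in 96-well plates to compound at five concentrations. GI50: concentration for 50% inhibition of growth. TGI denotes the concentration required for complete inhibition of growth.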

Tests used:
Experiment in all cases: NCI anticancer screen, dose series, 48 h
CAKI-1 renal = system: CAKI-1 renal
MALME-3M melanoma = system: MALME-3M melanoma
OVCAR-8 ovarian = system: OVCAR-8 ovarian
HOP-62 NSCLC = system: HOP-62 NSCLC
OVCAR-3 ovarian = system: OVCAR-3 ovarian
SF-295 CNS = system: SF-295 CNS
HCC-2998 colon = system: HCC-2998 colon
SK-MEL-5 melanoma = system: SK-MEL-5 melanoma
HL-60(TB) leukemia = system: HL-60(TB) leukemia
HS 578T breast = system: HS 578T breast
MOLT-4 leukemia = system: MOLT-4 leukemia
RXF 393 renal = system: RXF 393 renal
MCF7 breast = system: MCF7 breast
K-562 leukemia = system: K-562 leukemia
OVCAR-4 ovarian = system: OVCAR-4 ovarian
CCRF-CEM leukemia = system: CCRF-CEM leukemia
COLO 205 colon = system: COLO 205 colon
UO-31 renal = system: UO-31 renal
SF-539 CNS = system: SF-539 CNS
OVCAR-5 ovarian = system: OVCAR-5 ovarian
HCT-15 colon = system: HCT-15 colon
NCI-H522 lung = system: NCI-H522 lung
MDA-MB-231 breast = system: MDA-MB-231 breast
T-47D breast = system: T-47D breast
786-0 renal = system: 786-0 renal
BT-549 breast = system: BT-549 breast
SNB-75 CNS = system: SNB-75 CNS
TK-10 renal = system: TK-10 renal
U251 CNS = system: U251 CNS
PC-3 prostate = system: PC-3 prostate
SF-268 CNS = system: SF-268 CNS
A498 renal = system: A498 renal
NCI-H226 lung = system: NCI-H226 lung
KM12 colon = system: KM12 colon
M14 melanoma = system: M14 melanoma
SK-MEL-28 melanoma = system: SK-MEL-28 melanoma
A549 NSCLC = system: A549 NSCLC
DU-145 prostate = system: DU-145 prostate
SNB-19 CNS = system: SNB-19 CNS
UACC-62 melanoma = system: UACC-62 melanoma
HOP-92 NSCLC = system: HOP-92 NSCLC
SK-MEL-2 melanoma = system: SK-MEL-2 melanoma
LOX IMVI melanoma = system: LOX IMVI melanoma
NCI-H23 lung = system: NCI-H23 lung
HT29 colon = system: HT29 colon
SR leukemia = system: SR leukemia
ACHN renal = system: ACHN renal
SK-OV-3 ovarian = system: SK-OV-3 ovarian
EKVX NSCLC = system: EKVX NSCLC
NCI-H460 lung = system: NCI-H460 lung
RPMI-8226 leukemia = system: RPMI-8226 leukemia
SW-620 colon = system: SW-620 colon
MDA-MB-435 = system: MDA-MB-435
SN12C renal = system: SN12C renal
UACC-257 melanoma = system: UACC-257 melanoma
IGROV1 ovarian = system: IGROV1 ovarian
HCT-116 colon = system: HCT-116 colon
NCI/ADR-RES ovarian = system: NCI/ADR-RES ovarian

## Cc1ccc(-c2c(C#N)[n+](=O)c3cc(Cl)c(Cl)cc3n2[O-])cc1
CAKI-1 renal
  GI50: 16.9 µM
  TGI: 32.2 µM
MALME-3M melanoma
  GI50: 7 µM
  TGI: 25.2 µM
OVCAR-8 ovarian
  GI50: 7.39 µM
  TGI: 23.1 µM
HOP-62 NSCLC
  GI50: 10.3 µM
  TGI: 26.7 µM
OVCAR-3 ovarian
  GI50: 8.29 µM
  TGI: 23.5 µM
SF-295 CNS
  GI50: 19.4 µM
  TGI: 37.9 µM
HCC-2998 colon
  GI50: 4.76 µM
  TGI: 11.6 µM
SK-MEL-5 melanoma
  GI50: 13.9 µM
  TGI: 27.2 µM
HL-60(TB) leukemia
  GI50: 2.5 µM
  TGI: > 100 µM
HS 578T breast
  GI50: 10.3 µM
  TGI: 48.9 µM
MOLT-4 leukemia
  GI50: 1.55 µM
  TGI: 3.41 µM
RXF 393 renal
  GI50: 5.53 µM
  TGI: 12.6 µM
MCF7 breast
  GI50: 13.6 µM
  TGI: 34.9 µM
K-562 leukemia
  GI50: 2.56 µM
OVCAR-4 ovarian
  GI50: 10.8 µM
  TGI: 30.4 µM
CCRF-CEM leukemia
  GI50: 2.95 µM
  TGI: 15.6 µM
COLO 205 colon
  GI50: 8.97 µM
  TGI: 24.2 µM
UO-31 renal
  GI50: 13.6 µM
  TGI: 35.7 µM
SF-539 CNS
  GI50: 16.1 µM
  TGI: 35 µM
OVCAR-5 ovarian
  GI50: 6.02 µM
  TGI: 14.7 µM
HCT-15 colon
  GI50: 29.9 µM
  TGI: > 100 µM
NCI-H522 lung
  GI50: 12.9 µM
  TGI: > 67.4 µM
MDA-MB-231 breast
  GI50: 3.49 µM
T-47D breast
  GI50: 5.98 µM
  TGI: 16.3 µM
786-0 renal
  GI50: 13.4 µM
  TGI: 30.1 µM
BT-549 breast
  GI50: 16.1 µM
  TGI: 35.5 µM
SNB-75 CNS
  GI50: 18.2 µM
  TGI: 38.2 µM
TK-10 renal
  GI50: 16.7 µM
  TGI: 32.9 µM
U251 CNS
  GI50: 34.6 µM
  TGI: > 100 µM
PC-3 prostate
  GI50: 6.88 µM
  TGI: 18.5 µM
SF-268 CNS
  GI50: 5.16 µM
  TGI: 18 µM
A498 renal
  GI50: 16.3 µM
  TGI: 30.4 µM
NCI-H226 lung
  GI50: 40.4 µM
  TGI: > 100 µM
KM12 colon
  GI50: 6.05 µM
  TGI: 26.6 µM
M14 melanoma
  GI50: 4.95 µM
  TGI: 19.2 µM
SK-MEL-28 melanoma
  GI50: 3.98 µM
  TGI: 13.5 µM
A549 NSCLC
  GI50: 8.32 µM
  TGI: 23.3 µM
DU-145 prostate
  GI50: 17 µM
  TGI: 33.2 µM
SNB-19 CNS
  GI50: 14.4 µM
  TGI: > 47.1 µM
UACC-62 melanoma
  GI50: > 47 µM
  TGI: > 69.4 µM
HOP-92 NSCLC
  GI50: 6 µM
  TGI: 13.7 µM
SK-MEL-2 melanoma
  GI50: 17.3 µM
  TGI: 34.7 µM
LOX IMVI melanoma
  GI50: 27.1 µM
  TGI: > 100 µM
NCI-H23 lung
  GI50: 5.46 µM
  TGI: 13.1 µM
HT29 colon
  GI50: 2.94 µM
  TGI: 11 µM
SR leukemia
  GI50: 2.13 µM
  TGI: > 100 µM
ACHN renal
  GI50: 5.27 µM
SK-OV-3 ovarian
  GI50: 21.6 µM
  TGI: 47.1 µM
EKVX NSCLC
  GI50: 21.5 µM
  TGI: 45.4 µM
NCI-H460 lung
  GI50: 20 µM
  TGI: 41.3 µM
RPMI-8226 leukemia
  GI50: 4.76 µM
  TGI: 16.7 µM
SW-620 colon
  GI50: 5.08 µM
  TGI: 11.8 µM
MDA-MB-435
  GI50: 17.2 µM
  TGI: 35.2 µM
SN12C renal
  GI50: 30.5 µM
  TGI: 85.6 µM
UACC-257 melanoma
  GI50: 4.89 µM
  TGI: 9.77 µM
IGROV1 ovarian
  GI50: 3.41 µM
  TGI: > 36.9 µM
HCT-116 colon
  GI50: 2.16 µM
NCI/ADR-RES ovarian
  GI50: 5.86 µM
  TGI: 17.3 µM
